The target of the experiment is BTK (Homo sapiens, UniProt Q06187). The experiment in a line: biochemical. To be noted: read-out: BTK inhibition (%), 0.75 uM BTK, […] probe 3l, 15 min preincubation.

Molecules are shown by their SMILES.

Sequence of BTK (Q06187 402-655 limits assumed): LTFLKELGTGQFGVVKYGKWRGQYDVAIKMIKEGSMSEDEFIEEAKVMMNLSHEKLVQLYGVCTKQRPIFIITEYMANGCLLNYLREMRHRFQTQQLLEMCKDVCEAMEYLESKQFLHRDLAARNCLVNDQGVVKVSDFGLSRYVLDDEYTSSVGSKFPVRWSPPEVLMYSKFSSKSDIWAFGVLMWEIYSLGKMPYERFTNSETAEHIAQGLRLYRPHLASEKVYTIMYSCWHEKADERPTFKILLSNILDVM

In the case of `Cc1nn(C)c(COc2ccc(N3CCN(S(=O)(=O)N(C)C)CC3)cc2)c1-c1cccc2c(CCCOc3cccc4ccccc34)c(C(=O)O)n(CCN3CCOCC3)c12` [PCM-0215538], the inhibition at 10 µM was determined as 5.1%.
As for `C[C@H](Nc1ncnc2nc[nH]c12)c1cc2ccc(F)cc2nc1-c1ccccn1` [PCM-0215539], the figure is 3.4%; as for `CC(O)c1cc(C(=O)N[C@@H](C)Cn2ccc(-c3ccc(C#N)c(Cl)c3)n2)n[nH]1` (some centres unmarked) [PCM-0215540], -20.8%; as for `Cc1noc(C)c1-c1ccc(-c2cc(C(N)=O)c(NC(N)=O)s2)c(O[C@H]2CCNC2)c1` [PCM-0215541], 74.1%.
As for `O=S(=O)(NCCSSCCNS(=O)(=O)c1cc(Cl)ccc1Cl)c1cc(Cl)ccc1Cl` [PCM-0215542], the figure is 5.4%; as for `NC(=O)c1nc(F)c[nH]c1=O` [PCM-0215543], -6.2%; as for `CC(=O)c1cc2c(o1)C(=O)c1ccccc1C2=O` [PCM-0215544], -0.8%.
As for `CC(C)(C)c1ccc(S(=O)(=O)NCc2ccc(C(=O)Nc3cccnc3)cc2)cc1` [PCM-0215545], the inhibition at 10 µM is -2.3%.
Take `CC(C)C[C@H](NC(=O)[C@H](Cc1ccccc1)C[C@@H](O)[C@H](Cc1ccccc1)NC(=O)OC(C)(C)C)C(=O)N[C@@H](Cc1ccccc1)C(N)=O` [PCM-0215547]: the inhibition at 10 µM came out at 5.4%.
On to `CCOc1cc(C(C)(C)C)ccc1C1=N[C@@](C)(c2ccc(Cl)cc2)[C@@](C)(c2ccc(Cl)cc2)N1C(=O)N1CCN(CCCS(C)(=O)=O)CC1` [PCM-0215548], for which the inhibition at 10 µM came to 16.2%.
As for `CCOC(=O)c1csc(Nc2ccc(Cl)cc2)n1` [PCM-0215549], the figure is 17.8%; as for `NC(=O)c1cnc2[nH]ccc2c1NC1[C@@H]2CC3C[C@H]1CC(O)(C3)C2` (some centres unmarked) [PCM-0215550], 94.5%.
As for `CN1CCN(c2ccc(C(=O)Nc3n[nH]c4ccc(Cc5cc(F)cc(F)c5)cc34)c(NC3CCOCC3)c2)CC1` [PCM-0215551], the figure is 103%; as for `CNS(=O)(=O)Nc1nccc(Cc2c(C)c3ccc(Oc4ncccn4)cc3oc2=O)c1F` [PCM-0215552], 17.9%; as for `O=C(NCc1ccncc1)C12CC3CC(C1)CC(c1ccc(Cl)cc1)(C3)C2` [PCM-0215553], -6.9%.
As for `Fc1ccc(CNc2ncnc3ccc(F)cc23)cc1` [PCM-0215554], the figure is -17%.
For `COc1cccc(-n2c(=O)[nH]c3cc(Cl)n(-c4ccc(-c5cccc(OC)c5O)cc4)c3c2=O)c1` [PCM-0215555], the inhibition at 10 µM amounted to 99.3%.
As for `Nc1cccc(S(=O)(=O)N2CCCN(S(=O)(=O)c3ccc4c(c3)OCCO4)CC2)c1` [PCM-0215556], the figure is -2.8%; as for `CCOc1ccc(Cc2cc([C@@H]3O[C@H](SC)[C@@H](O)[C@H](O)[C@H]3O)ccc2Cl)cc1` [PCM-0215557], -17.8%; as for `Nc1nc(=S)c2ncn([C@H]3C[C@H](O)[C@@H](CO)O3)c2[nH]1` [PCM-0215558], -7.7%.
In the case of `C=CC(=O)Nc1ccc(CN2C(=O)N(c3cc(OC)cc(OC)c3)Cc3cnc(Nc4ccc(N5CCN(C)CC5)cc4)nc32)cc1` [PCM-0215559], the inhibition at 10 µM was 88.3%.
Then `Oc1ccc(Cc2nc3c(Cc4ccccc4)nc(-c4ccc(O)cc4)cn3c2O)cc1` [PCM-0215560], with 91.1%; and `CCOC(=O)N[C@@H]1CC[C@@H]2[C@@H](C1)C[C@H]1C(=O)O[C@H](C)[C@H]1[C@H]2/C=C/c1ccc(-c2cccc(F)c2)cn1` [PCM-0215561], with 26.3%; and `NC1CCC(N[C@@H]2C[C@H]2c2ccccc2)CC1` (some centres unmarked) [PCM-0215562], with 13.1%.
Then `N#CNC(=NCCCCCCOc1ccc(Cl)cc1)Nc1ccncc1` [PCM-0215563], with 18.5%.
Consider `CCCN(CCC)C(=O)C1=Cc2ccc(-c3ccc(C(=O)N4CCCC4)cc3)cc2N=C(N)C1` [PCM-0215564], for which the inhibition at 10 µM is -10.3%.
As for `COc1ccc(COc2ccc(CC#N)cc2)cc1` [PCM-0215565], the figure is -9.3%.
Then `CC(C)CCn1c(CN2CCN(C(=O)C3CC3)CC2)nc2c1c(=O)n(C)c(=O)n2C` [PCM-0215566], with -13.9%; and `CC(C)(c1ccc(OCC(O)CO)cc1)c1ccc(OCC(O)CCl)cc1` (centres unmarked) [PCM-0215567], with -2.3%.
Then `NCCOCCOCCNC(=O)Cc1ccc(Nc2nc(NCc3ccc(F)cc3)nc(NCC3CCCCC3)n2)cc1` [PCM-0215568], with -36.3%.
As to `CCCC[S+]([O-])c1sc2nc(-c3cccs3)cc(-c3ccccc3)c2c1N` (centres unmarked) [PCM-0215569], the inhibition at 10 µM came to 0.8%.
As for `Nc1nc(-c2nn(Cc3ccccc3F)c3ncccc23)ncc1C1CC1` [PCM-0215570], the figure is -5.4%; as for `CO[C@@H]1[C@H](OC(=O)/C=C/C=C/C=C/C=C/C(=O)O)CC[C@]2(CO2)[C@H]1[C@@]1(C)O[C@@H]1CC=C(C)C` [PCM-0215572], 3.9%.
Then `CC[C@@](C)(Nc1ccnc(-c2c[nH]c3ncccc23)n1)C(=O)NCC(F)(F)F` [PCM-0215573], with 2.1%.
As for `COC(=O)N(C)c1c(N)nc(-c2nn(Cc3ccccc3F)c3ncccc23)nc1N` [PCM-0215574], the figure is -25.5%; as for `COc1cc2ncnc(Nc3cccc(Cl)c3F)c2cc1OC(=O)N1CCN(C)C[C@H]1C` [PCM-0215575], -19.3%; as for `CCOCc1nc2c(N)nc3ccccc3c2n1CC(C)(C)O` [PCM-0215576], 15.2%.
As for `CCn1c(=O)c(-c2ccn[nH]2)cc2c(C)nc(N)nc21` [PCM-0215577], the inhibition at 10 µM came to 7.6%.
Then `O=C(Nc1cc(Cl)cc2c1[nH]c1cnccc12)c1cccnc1` [PCM-0215579], with 12.4%.
As for `COc1ccc(C(=O)C2CCN(CC(=O)N(Cc3nc4c(c(=O)[nH]3)COCC4)CC3CC3)CC2)cc1` [PCM-0215580], the figure is -6.9%; as for `O=C(O)[C@H]1CSC(c2nc3ccc(O)cc3s2)=N1` [PCM-0215581], -16.2%.
As for `Oc1c(F)cc(-c2cnccc2-c2ccc(N3CCOCC3)cc2)cc1F` [PCM-0215582], the figure is -12.4%; as for `O=C(O)CNC(=O)c1nc(Cl)c2ccccc2c1O` [PCM-0215583], 10.8%.
In the case of `Cc1cn(-c2cc(NC(=O)c3ccc(C)c(Nc4nccc(-c5cnccn5)n4)c3)cc(C(F)(F)F)c2)cn1` [PCM-0215584], the inhibition at 10 µM was -4.1%.
Then `C[C@H]1CNCCCN1S(=O)(=O)c1cccc2cncc(F)c12` [PCM-0215585], with -14.5%; and `CCC(C)SSc1ncc[nH]1` (centres unmarked) [PCM-0215586], with 2.3%.
As for `CN1CCN(Cc2ccc(NC(=O)Nc3ccc(Oc4ccnc(N)n4)cc3)cc2C(F)(F)F)CC1` [PCM-0215587], the figure is 31%.
As for `CC(C)Oc1ccc(-c2nc(-c3cccc4c3CC[C@@H]4NCCO)no2)cc1C#N` [PCM-0215588], the figure is -5.5%; as for `Cc1ccc(Nc2ncc3c(n2)N(C)C(=O)N(c2cc(NC(=O)c4cccc(C(F)(F)F)c4)ccc2C)C3)cn1` [PCM-0215589], 36.6%; as for `CN1CCN(C(=O)/C=C/c2ccc([N+](=O)[O-])o2)CC1` [PCM-0215590], 4.6%.
